Values quoted from earlier work, collected in US20230023032A1, “SUSTAINED RELEASE COMPOSITIONS COMPRISING LIOTHYRONINE” (Amneal Complex Products Research LLC, priority 2020, published 2023).

Details: administered in an immediate release form

- half-life: about 10 hours
SMILES: N[C@@H](Cc1cc(I)c(Oc2ccc(O)c(I)c2)c(I)c1)C(=O)O [liothyronine]
